Assay results reported in patent publication US20250154180A1, “CRK-LIKE (CRKL) ADAPTOR PROTEIN INHIBITORS AND METHODS OF MAKING AND USING THE SAME” (Rutgers, The State University of New Jersey, priority 2022, published 2025).

Columns and labels:
[1] = test system: PBNK cells killing activity towards MDA-MB-231; experiment: Cr51 release assay, PBNK killing of MDA-MB-231; type: cell-based; conditions: 1 uM overnight
Procedure: PBNK cells were incubated with 1 uM NC5 or Compound III overnight, then cells were harvested for Cr51 release assay to check cell cytotoxicity. […] The star symbol indicates the significance of vehicle control vs. NC5 of the indicated E:T ratios. *p<0.05, **p<0.01, n=3.

[2] = Mouse toxicity assays (serum ALT, AST, BUN, creatinine); type: in vivo, mice; conditions: mouse, in vivo
Procedure: Three mice were treated in each group. Blood samples were collected from every mouse in pre-treatment and post-treatment (20 days), and serum was obtained for alanine aminotransferase (ALT, SGPT, FIG. 12A), aspartate aminotransferase (AST, SGOT, FIG. 12B), blood urea nitrogen (BUN, FIG. 12C), and creatinine (FIG. 12D) tests to monitor liver and kidney toxicity. The normal Reference Ranges for ALT is 17-77 IU/L; AST is 54-298 IU/L; BUN is 18.5-33.3 mg/dL; Cr is 0-0.40 mg/dL.
Mouse toxicity assays—Blood was collected from the submandibular facial vein following IACUC guidelines (CMP, Houston Methodist Research Institute and Rutgers University) before and 20-day after the drug treatment. The Department of Veterinary Medicine & Surgery, MD Anderson Cancer Center, performed the clinical biochemistry and pharmacokinetics tests. Blood serum chemistry analysis included alanine transaminase (ALT), aspartate transaminase (AST), blood urea nitrogen (BUN), and creatinine level measurements.
Alanine aminotransferase (ALT, SGPT), aspartate aminotransferase (AST, SGOT), blood urea nitrogen (BUN), and creatinine levels were examined to determine liver and kidney toxicity of Pomiferin treatments in vivo. […] Nevertheless, these changes have no physiological significance because ALT, AST and BUN levels in all mice were within normal mouse reference ranges. […]

BXPC3 tumor = experiment: PDAC BXPC3 xenograft model; type: in vivo, NSG mice
Procedure: For HCC or PDAC xenograft models, NSG mice 8-week-old) were injected subcutaneously with 1×10^6 HepG2 or BXPC3 tumor cells mixed with Matrigel.
To further test whether the tumor growth inhibition effect of NC5 applied to other solid tumors, the HCC-Sk-Hep1cell line and PDAC-BXPC3 cell line xenograft models were used. Subcutaneous injection of 1.5×10^6 SK-Hep1 or BXPC3 cells in NSG mice, Six-ten days after tumor cell injection, the palpable tumor in NSG mice was confirmed.

Thermodynamic solubility = type: physicochemical; conditions: thermodynamic from solid
Procedure: In this example, solubility measurement assays were performed using a phosphate buffer (also referred to as “PB”) system and a water system to evaluate thermodynamic solubility. The PB system was at a pH of 7.4 to mimic in vivo environments. For the PB system, the values were determined to be NC5: Thermodynamic Solubility pH=7.4<0.42 μg/mL; Compound III: Thermodynamic Solubility pH=7.4<0.48 μg/mL; and Compound I: Thermodynamic Solubility pH=7.4<0.48 μg/mL. Results for the water assay were as follows: NC5: Thermodynamic Solubility Water<0.42 μg/mL; Compound III: Thermodynamic Solubility Water<0.48 μg/mL; and Compound I: Thermodynamic Solubility Water<0.48 μg/mL.

P-ERK1/2 in PBMC = experiment: Western blotting, PBMC; type: cell-based, human; conditions: NC5 1, 5, 10 uM, 24 hours
[3] = test system: CrkL phosphorylation by Ab1; experiment: in vitro kinase assay (CrkL phosphorylation by Ab1, western blot); type: biochemical; conditions: 40 μM candidate drug; compared to Gleevec positive control
Procedure: The expression of both CrkL and phosphor-CrkL in the negative control was arbitrarily set as “1”, and other treatments were relatively compared with the negative control. The pCrkL and CrkL were set as the phosphorylation ratio, while the kinase inhibition efficiency was set as (1−pCrkL/CrkL)×100%.
in vitro Kinase Assay—An in vitro kinase assay was conducted to detect CrkL phosphorylation by Ab1 and to determine whether candidate drugs identified in the AlphaScreen assays could inhibit phosphorylation. […] The pTyr207 antibody detected the level of phosphorylated CrkL. […]
To further verify the pCrkL inhibitor, a kinase assay was designed to evaluate the specificity of positive hits. […] The decreased amount of pCrkL can be detected and quantified by this kinase assay. […]
In total, ten candidate drugs (five that bind to Ab1 and five that bind to CrkL) were verified by the in vitro kinase inhibition assay followed by thermal shift analysis. […] For phosphorylated CrkL detection, only the phosphorylation of Tyr207 was specifically detected by the anti-CrkL phosphorylation antibodies (FIG. 3B). […]

Compound: CC(C)=CCc1c2c(c3occ(-c4ccc(O)c(O)c4)c(=O)c3c1O)C=CC(C)(C)O2 [Pomiferin, 3′,4′,5-Trihydroxy-6″,6″-dimethyl-6-(3-methylbut-2-en-1-yl)-6″H-pyrano[2″,3″:7,8]isoflavone]
- PBNK cells killing activity (Cr51 release) [1]: increased PBNK cells killing activity
- damage to the liver and kidneys [2]: little to no damage to the liver and kidneys
- median survival (BXPC3 tumor; 5.0 μg/g oral, vehicle 37 days): 43.5 days
- tumor growth (BXPC3 tumor; Pomiferin administered orally): suppressed
- median survival, fold longer than vehicle control (BXPC3 tumor; mouse, in vivo): 1.2 fold
- solubility thermodynamic (Thermodynamic solubility; pH 7.4, aqueous buffer): < 0.42 µg/mL
- solubility thermodynamic (Thermodynamic solubility; water): < 0.42 µg/mL
- P-ERK1/2 levels (Western blotting) (P-ERK1/2 in PBMC): minimal changes
- kinase inhibition effect (CrkL phosphorylation) [3]: comparable results similar to the kinase inhibition effect seen with Gleevec
